In the NIST ThermoML archive (doi:10.1016/j.fluid.2016.01.043):

Assays:
[1] = mn = molality of the nth substance listed, in mol/kg; conditions: 101 kPa, Liquid; for viscosity: Cone and plate viscometry; for electrical conductivity: Frequency=0 MHz, Direct current cell with electrodes
[2] = for viscosity / electrical conductivity: 101 kPa, Liquid; for viscosity: Cone and plate viscometry; for electrical conductivity: Frequency=0 MHz, Direct current cell with electrodes

CCCC[N+]1(C)CCCC1.O=S(=O)([N-]S(=O)(=O)C(F)(F)F)C(F)(F)F + [F][Ta]([F])([F])([F])[F]
[1], m2 = 0
Conditions | electrical conductivity [S/m] | viscosity [mPa·s]
293.15 K | 0.25 | 102
303.15 K | – | 67
312.15 K | – | 47
312.17 K | – | 47
313.15 K | 0.47 | –
321.22 K | – | 36
323.15 K | 0.63 | –
330.29 K | – | 28
333.15 K | 0.8 | –
339.37 K | – | 22
343.15 K | 1.01 | –
348.44 K | – | 17
353.15 K | 1.21 | –
357.52 K | – | 14
367.49 K | – | 11
373.15 K | 1.74 | –
377.46 K | – | 10
386.53 K | – | 8
393.15 K | 2.3 | –
394.73 K | – | 7
403.15 K | – | 6
413.15 K | 2.92 | –
433.15 K | 3.61 | –
453.15 K | 4.33 | –

[F][Ta]([F])([F])([F])[F] [Tantalum fluoride] + CCCC[N+]1(C)CCCC1.O=S(=O)([N-]S(=O)(=O)C(F)(F)F)C(F)(F)F
[1]
Conditions | electrical conductivity, 293.15 K [S/m] | electrical conductivity, 373.15 K [S/m] | electrical conductivity, 413.15 K [S/m] | electrical conductivity, 453.15 K [S/m] | viscosity, 303.15 K [mPa·s] | viscosity, 312.17 K [mPa·s] | viscosity, 321.22 K [mPa·s] | viscosity, 339.37 K [mPa·s] | viscosity, 367.49 K [mPa·s] | viscosity, 403.15 K [mPa·s]
m1 = 0.08 | 0.24 | 1.73 | 2.94 | 4.23 | 71 | 51 | 38 | 23 | 12 | 7
m1 = 0.17 | 0.23 | 1.66 | 2.81 | 4.16 | 73 | 52 | 40 | 24 | 12 | 7
m1 = 0.35 | 0.23 | 1.65 | 2.78 | 4.13 | 77 | 56 | 41 | 25 | 13 | 7
m1 = 0.7 | 0.22 | 1.56 | 2.66 | 3.84 | 81 | 59 | 44 | 26 | 14 | 8
m1 = 1.41 | 0.22 | 1.37 | 2.27 | 3.44 | 87 | 62 | 47 | 28 | 15 | 8

CCCC[N+]1(C)CCCC1.O=S(=O)([N-]S(=O)(=O)C(F)(F)F)C(F)(F)F
[2]
Conditions | electrical conductivity [S/m] | viscosity [mPa·s]
293.15 K | 0.25 | 102
303.15 K | – | 67
312.15 K | – | 47
312.17 K | – | 47
313.15 K | 0.47 | –
321.22 K | – | 36
323.15 K | 0.63 | –
330.29 K | – | 28
333.15 K | 0.8 | –
339.37 K | – | 22
343.15 K | 1.01 | –
348.44 K | – | 17
353.15 K | 1.21 | –
357.52 K | – | 14
367.49 K | – | 11
373.15 K | 1.74 | –
377.46 K | – | 10
386.53 K | – | 8
393.15 K | 2.3 | –
394.73 K | – | 7
403.15 K | – | 6
413.15 K | 2.92 | –
433.15 K | 3.61 | –
453.15 K | 4.33 | –

Conditions | Normal melting temperature [°C]
[2], Crystal, DTA | -22
